Assay results reported in PubChem BioAssay (NCI).
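1) Cells in 96-well plates. 2) Compound, 48 h, 5 concentrations. 3) Linear interpolation between surrounding doses. 4) Unreached endpoint = highest concentration. GI50: concentration for 50% inhibition of growth. TGI marks complete inhibition of growth.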

Columns and labels:
Assay in all cases: DTP human tumour cell line panel, 48 h
HCT-116 colon = test system: HCT-116 colon
PC-3 prostate = test system: PC-3 prostate
UACC-62 melanoma = test system: UACC-62 melanoma
IGROV1 ovarian = test system: IGROV1 ovarian
SN12C renal = test system: SN12C renal
DU-145 prostate = test system: DU-145 prostate
HOP-62 NSCLC = test system: HOP-62 NSCLC
RPMI-8226 leukemia = test system: RPMI-8226 leukemia
SW-620 colon = test system: SW-620 colon
MDA-MB-231 breast = test system: MDA-MB-231 breast
A549 NSCLC = test system: A549 NSCLC
LOX IMVI melanoma = test system: LOX IMVI melanoma
TK-10 renal = test system: TK-10 renal
OVCAR-3 ovarian = test system: OVCAR-3 ovarian
SK-MEL-5 melanoma = test system: SK-MEL-5 melanoma
HOP-92 NSCLC = test system: HOP-92 NSCLC
NCI/ADR-RES ovarian = test system: NCI/ADR-RES ovarian
UO-31 renal = test system: UO-31 renal
HCC-2998 colon = test system: HCC-2998 colon
HCT-15 colon = test system: HCT-15 colon
CAKI-1 renal = test system: CAKI-1 renal
CCRF-CEM leukemia = test system: CCRF-CEM leukemia
KM12 colon = test system: KM12 colon
SF-539 CNS = test system: SF-539 CNS
U251 CNS = test system: U251 CNS
A498 renal = test system: A498 renal
NCI-H226 lung = test system: NCI-H226 lung
HL-60(TB) leukemia = test system: HL-60(TB) leukemia
OVCAR-5 ovarian = test system: OVCAR-5 ovarian
K-562 leukemia = test system: K-562 leukemia
ACHN renal = test system: ACHN renal
OVCAR-4 ovarian = test system: OVCAR-4 ovarian
SF-268 CNS = test system: SF-268 CNS
M14 melanoma = test system: M14 melanoma
MCF7 breast = test system: MCF7 breast
HT29 colon = test system: HT29 colon
NCI-H460 lung = test system: NCI-H460 lung
NCI-H23 lung = test system: NCI-H23 lung
SNB-75 CNS = test system: SNB-75 CNS
EKVX NSCLC = test system: EKVX NSCLC
786-0 renal = test system: 786-0 renal
MOLT-4 leukemia = test system: MOLT-4 leukemia
T-47D breast = test system: T-47D breast
HS 578T breast = test system: HS 578T breast
RXF 393 renal = test system: RXF 393 renal
COLO 205 colon = test system: COLO 205 colon
UACC-257 melanoma = test system: UACC-257 melanoma
MDA-MB-435 = test system: MDA-MB-435
SK-MEL-2 melanoma = test system: SK-MEL-2 melanoma
SK-OV-3 ovarian = test system: SK-OV-3 ovarian
SK-MEL-28 melanoma = test system: SK-MEL-28 melanoma
OVCAR-8 ovarian = test system: OVCAR-8 ovarian
NCI-H522 lung = test system: NCI-H522 lung
SF-295 CNS = test system: SF-295 CNS
BT-549 breast = test system: BT-549 breast
SNB-19 CNS = test system: SNB-19 CNS
MALME-3M melanoma = test system: MALME-3M melanoma
SR leukemia = test system: SR leukemia

Compound: C=C(C(=O)OC1C(CO)OC(OCC2CC[C@@H]3C[C@]4(OC(=O)C3=C)C(C)=CC(=O)C24)C(O)C1O)[C@@H]1CCC(CO)C2C(=O)C=C(C)[C@@]2(O)C1 (some centres undefined)
- TGI (HCT-116 colon): 3.07 µM
- TGI (PC-3 prostate): 6.63 µM
- TGI (UACC-62 melanoma): 3.35 µM
- TGI (IGROV1 ovarian): 12.6 µM
- TGI (SN12C renal): 5.42 µM
- TGI (DU-145 prostate): 17.6 µM
- TGI (HOP-62 NSCLC): 24.9 µM
- TGI (RPMI-8226 leukemia): 9.12 µM
- TGI (SW-620 colon): 13.3 µM
- TGI (MDA-MB-231 breast): 3.26 µM
- TGI (A549 NSCLC): 18 µM
- TGI (LOX IMVI melanoma): 6.32 µM
- TGI (TK-10 renal): 13.1 µM
- TGI (OVCAR-3 ovarian): 14.7 µM
- TGI (SK-MEL-5 melanoma): 2.75 µM
- TGI (HOP-92 NSCLC): 6.66 µM
- TGI (NCI/ADR-RES ovarian): 11.2 µM
- TGI (UO-31 renal): 7.98 µM
- TGI (HCC-2998 colon): 4.29 µM
- TGI (HCT-15 colon): 3.1 µM
- TGI (CAKI-1 renal): 7.93 µM
- TGI (CCRF-CEM leukemia): 1.3 µM
- TGI (KM12 colon): 8.31 µM
- TGI (SF-539 CNS): 10.5 µM
- TGI (U251 CNS): 16 µM
- TGI (A498 renal): 9.86 µM
- TGI (NCI-H226 lung): 20.2 µM
- TGI (HL-60(TB) leukemia): 3.76 µM
- TGI (OVCAR-5 ovarian): 7.15 µM
- TGI (K-562 leukemia): 31.1 µM
- TGI (ACHN renal): 12.3 µM
- TGI (OVCAR-4 ovarian): 20.1 µM
- TGI (SF-268 CNS): 16.1 µM
- TGI (M14 melanoma): 4.81 µM
- TGI (MCF7 breast): 12.8 µM
- TGI (HT29 colon): 6.37 µM
- TGI (NCI-H460 lung): 13.7 µM
- TGI (NCI-H23 lung): 5.12 µM
- TGI (SNB-75 CNS): 29 µM
- TGI (EKVX NSCLC): 8.61 µM
- TGI (786-0 renal): 7.85 µM
- TGI (MOLT-4 leukemia): 8.41 µM
- TGI (T-47D breast): 24.3 µM
- TGI (HS 578T breast): > 53.1 µM
- TGI (RXF 393 renal): 4.14 µM
- TGI (COLO 205 colon): 1.13 µM
- TGI (UACC-257 melanoma): 5.17 µM
- TGI (MDA-MB-435): 5.04 µM
- TGI (SK-MEL-2 melanoma): 8.29 µM
- TGI (SK-OV-3 ovarian): 55.9 µM
- TGI (SK-MEL-28 melanoma): 14.8 µM
- TGI (OVCAR-8 ovarian): 14.8 µM
- TGI (NCI-H522 lung): 0.783 µM
- TGI (SF-295 CNS): 35 µM
- TGI (BT-549 breast): 3.52 µM
- TGI (SNB-19 CNS): 31.8 µM
- TGI (MALME-3M melanoma): 3.44 µM
- TGI (SR leukemia): 11.6 µM

Compound: C=CCSSC1N=CNc2nc[nH]c21 (centres undefined)
- GI50 (HCT-116 colon): 2.77 µM
- TGI (HCT-116 colon): 15.8 µM
- GI50 (PC-3 prostate): 5.56 µM
- TGI (PC-3 prostate): 28.7 µM
- GI50 (UACC-62 melanoma): 1.75 µM
- TGI (UACC-62 melanoma): > 57.7 µM
- GI50 (IGROV1 ovarian): 2.12 µM
- TGI (IGROV1 ovarian): 11.2 µM
- GI50 (SN12C renal): 10.4 µM
- TGI (SN12C renal): > 67.4 µM
- GI50 (DU-145 prostate): 0.837 µM
- TGI (DU-145 prostate): > 47.5 µM
- GI50 (HOP-62 NSCLC): 1.54 µM
- TGI (HOP-62 NSCLC): > 70.4 µM
- GI50 (RPMI-8226 leukemia): 1.44 µM
- TGI (RPMI-8226 leukemia): 6.26 µM
- GI50 (SW-620 colon): 3.71 µM
- TGI (SW-620 colon): 14.9 µM
- GI50 (MDA-MB-231 breast): 4.84 µM
- TGI (MDA-MB-231 breast): 36.2 µM
- GI50 (A549 NSCLC): 30.5 µM
- TGI (A549 NSCLC): > 100 µM
- GI50 (LOX IMVI melanoma): 0.374 µM
- TGI (LOX IMVI melanoma): 14.6 µM
- GI50 (TK-10 renal): 0.708 µM
- TGI (TK-10 renal): 23.8 µM
- GI50 (OVCAR-3 ovarian): 0.944 µM
- TGI (OVCAR-3 ovarian): 14.2 µM
- GI50 (SK-MEL-5 melanoma): 5.31 µM
- TGI (SK-MEL-5 melanoma): 39.5 µM
- GI50 (HOP-92 NSCLC): 0.376 µM
- TGI (HOP-92 NSCLC): 17 µM
- GI50 (NCI/ADR-RES ovarian): 4.46 µM
- TGI (NCI/ADR-RES ovarian): > 80.6 µM
- GI50 (UO-31 renal): 2.72 µM
- TGI (UO-31 renal): 13 µM
- GI50 (HCC-2998 colon): 2.82 µM
- TGI (HCC-2998 colon): 23.8 µM
- GI50 (HCT-15 colon): 4.71 µM
- TGI (HCT-15 colon): 24.5 µM
- GI50 (CAKI-1 renal): 1.97 µM
- TGI (CAKI-1 renal): 34.5 µM
- GI50 (CCRF-CEM leukemia): 0.871 µM
- TGI (CCRF-CEM leukemia): > 28.1 µM
- GI50 (KM12 colon): 4.42 µM
- TGI (KM12 colon): > 43.6 µM
- GI50 (SF-539 CNS): 2.6 µM
- TGI (SF-539 CNS): 32.4 µM
- GI50 (U251 CNS): 15.9 µM
- TGI (U251 CNS): > 54.4 µM
- GI50 (A498 renal): 67.2 µM
- TGI (A498 renal): > 100 µM
- GI50 (NCI-H226 lung): 12.2 µM
- TGI (NCI-H226 lung): > 100 µM
- GI50 (HL-60(TB) leukemia): 2.4 µM
- TGI (HL-60(TB) leukemia): > 26.2 µM
- GI50 (OVCAR-5 ovarian): 7.53 µM
- TGI (OVCAR-5 ovarian): > 50.6 µM
- GI50 (K-562 leukemia): 0.343 µM
- TGI (K-562 leukemia): > 26 µM
- GI50 (ACHN renal): 5.62 µM
- TGI (ACHN renal): > 46.3 µM
- GI50 (OVCAR-4 ovarian): 0.446 µM
- TGI (OVCAR-4 ovarian): 5.43 µM
- GI50 (SF-268 CNS): 5.66 µM
- TGI (SF-268 CNS): > 46.9 µM
- GI50 (M14 melanoma): 0.461 µM
- TGI (M14 melanoma): 18.6 µM
- GI50 (MCF7 breast): 1.02 µM
- TGI (MCF7 breast): 16.1 µM
- GI50 (HT29 colon): 5.88 µM
- TGI (HT29 colon): 36.5 µM
- GI50 (NCI-H460 lung): 8.16 µM
- TGI (NCI-H460 lung): > 100 µM
- GI50 (NCI-H23 lung): 8.09 µM
- TGI (NCI-H23 lung): 42.8 µM
- GI50 (SNB-75 CNS): 3.18 µM
- TGI (SNB-75 CNS): > 90.9 µM
- GI50 (EKVX NSCLC): 49.4 µM
- TGI (EKVX NSCLC): > 100 µM
- GI50 (786-0 renal): 1.75 µM
- TGI (786-0 renal): > 36.3 µM
- GI50 (MOLT-4 leukemia): 2.15 µM
- TGI (MOLT-4 leukemia): > 24.1 µM
- GI50 (T-47D breast): 1.39 µM
- TGI (T-47D breast): 26.5 µM
- GI50 (HS 578T breast): 12.8 µM
- TGI (HS 578T breast): > 100 µM
- GI50 (RXF 393 renal): 4.73 µM
- TGI (RXF 393 renal): 21.5 µM
- GI50 (COLO 205 colon): 3.52 µM
- TGI (COLO 205 colon): 14.7 µM
- GI50 (UACC-257 melanoma): 5.34 µM
- TGI (UACC-257 melanoma): 16.8 µM
- GI50 (MDA-MB-435): 2.15 µM
- TGI (MDA-MB-435): 39.9 µM
- GI50 (SK-MEL-2 melanoma): 6.11 µM
- TGI (SK-MEL-2 melanoma): 19.2 µM
- GI50 (SK-OV-3 ovarian): 0.562 µM
- TGI (SK-OV-3 ovarian): > 88.6 µM
- GI50 (SK-MEL-28 melanoma): 27.2 µM
- TGI (SK-MEL-28 melanoma): > 70.2 µM
- GI50 (OVCAR-8 ovarian): 4 µM
- TGI (OVCAR-8 ovarian): 23.3 µM
- GI50 (NCI-H522 lung): 4.34 µM
- TGI (NCI-H522 lung): 48.3 µM
- GI50 (SF-295 CNS): 2.61 µM
- TGI (SF-295 CNS): > 100 µM
- GI50 (BT-549 breast): 8.78 µM
- TGI (BT-549 breast): > 76.4 µM
- GI50 (SNB-19 CNS): > 71.6 µM
- TGI (SNB-19 CNS): > 100 µM
- GI50 (MALME-3M melanoma): 3.61 µM
- TGI (MALME-3M melanoma): > 42.2 µM
- GI50 (SR leukemia): 1.28 µM
- TGI (SR leukemia): > 100 µM
